One experiment has as its target purified HLA DRB1 *0401 (Homo sapiens, UniProt P01903+P01911, A100K/A169T/F76Y/I96L/K127E/L162R/M171V/N62H/P40V/Q125Y/R42H/S133A/S149N/S66Y/V115G/V209L/W38E). Briefly: IC50nM to purified HLA | DRB1 *0401. As to the method:
(§1) Table printed on a drawing sheet, FIG. 1
Head of the field: IC50nM to purified HLA | DRB1 *0401
(§2) First copying reader's note: The comma is the decimal sign and the point a thousands separator (e.g. 21.831); some values are printed bold or italic and some SEQ ID NOs underlined, with no legend on the sheet.
Where the first naming reader finds the target: head: IC50nM to purified HLA | DRB1 *0401

The next experiment deals with purified HLA DRB5 *0101 (Homo sapiens, UniProt P01903+Q30154). Briefly: IC50nM to purified HLA | DRB5 *0101. As to the method: as §1
Head of the field: IC50nM to purified HLA | DRB5 *0101
as §2
Where the first naming reader finds the target: head: IC50nM to purified HLA | DRB5 *0101

For a further experiment, the target named is purified HLA DRB1 *0901 (Homo sapiens, UniProt P01903+P01911, A100R/A103E/D57H/D86V/F55Y/F60I/F76Y/I96F/K127E/L162R/M171V/P40D/Q125H/Q99R/R33Q/R42F/S133A/S66N/T210M/V115G/W38K/Y107V/Y59G/Y89S). Kind of experiment: IC50nM to purified HLA | DRB1 *0901. As to the method: as §1
Head of the field: IC50nM to purified HLA | DRB1 *0901
as §2
Where the first naming reader finds the target: head: IC50nM to purified HLA | DRB1 *0901

A further experiment concerns the target purified HLA DRB1 *1501 (Homo sapiens, UniProt P01903+P01911). Kind of experiment: IC50nM to purified HLA | DRB1 *1501. On the procedure: as §1
(§3) Head of the field: IC50nM to purified HLA | DRB1 *1501
as §2
(§4) Where the first naming reader finds the target: head: IC50nM to purified HLA | DRB1 *1501

For another experiment, the target named is purified HLA DRB1 *1302 (Homo sapiens, UniProt P01903+P01911, A100E/A169T/K41T/L162R/M171V/P40S/Q125H/Q178H/Q39Y/Q99D/R42S/S66N/T262R/V115G/W38E/Y61H). Kind of experiment: IC50nM to purified HLA | DRB1 *1302. On the procedure:
as §1
(§5) Head of the field: IC50nM to purified HLA | DRB1 *1302
as §2
(§6) Where the first naming reader finds the target: head: IC50nM to purified HLA | DRB1 *1302

The target in the next experiment is purified HLA DRB1 *0404 (Homo sapiens, UniProt P01903+P01911, A100R/A169T/F76Y/I96L/K127E/L162R/M171V/N62H/P40V/Q125Y/R42H/S133A/S149N/S66Y/V209L/W38E). Briefly: IC50nM to purified HLA | DRB1 *0404. As to the method:
as §1
Head of the field: IC50nM to purified HLA | DRB1 *0404
as §2
Where the first naming reader finds the target: head: IC50nM to purified HLA | DRB1 *0404

The target of another experiment is purified HLA DRB4 *0101 (Homo sapiens, UniProt P01903+P13762, G164S). Kind of experiment: IC50nM to purified HLA | DRB4 *0101. As to the method: as §1
(§7) Head of the field: IC50nM to purified HLA | DRB4 *0101
as §2
(§8) Where the first naming reader finds the target: head: IC50nM to purified HLA | DRB4 *0101

For a further experiment, the target named is purified HLA DRB1 *1101 (Homo sapiens, UniProt P01903+P01911, A100R/A169T/A87E/I96F/K41T/L162R/M171V/P40S/Q125H/Q178H/Q39Y/Q99D/R42S/S66Y/T262R/V115G/W38E). Briefly: IC50nM to purified HLA | DRB1 *1101. As to the method: as §1
Head of the field: IC50nM to purified HLA | DRB1 *1101
as §2
Where the first naming reader finds the target: head: IC50nM to purified HLA | DRB1 *1101

A further experiment deals with purified HLA DRB1 *0701 (Homo sapiens, UniProt P01903+P01911, A100R/A102G/A103Q/D57E/D86V/E43K/F76Y/K127E/L162R/M171V/P40G/Q125H/Q99D/R33Q/R42Y/R54Q/S133A/S66F/T210M/V115G/Y107V/Y59L/Y89S). Kind of experiment: IC50nM to purified HLA | DRB1 *0701. As to the method: as §1
Head of the field: IC50nM to purified HLA | DRB1 *0701
as §2
Where the first naming reader finds the target: head: IC50nM to purified HLA | DRB1 *0701

The target of another experiment is purified HLA DRB1 *0405 (Homo sapiens, UniProt P01903+P01911, A100R/A169T/D86S/F76Y/I96L/K127E/L162R/M171V/N62H/P40V/Q125Y/R42H/S133A/S149N/S66Y/V115G/V209L/W38E). Kind of experiment: IC50nM to purified HLA | DRB1 *0405. As to the method: as §1
(§9) Head of the field: IC50nM to purified HLA | DRB1 *0405
as §2
(§10) Where the first naming reader finds the target: head: IC50nM to purified HLA | DRB1 *0405

The target in a further experiment is purified HLA DRB1 *0301 (Homo sapiens, UniProt P01903+P01911, A100K/A102G/A103R/A169T/F55Y/I96L/K41T/L162R/M171V/P40S/Q125H/Q178H/Q39Y/R42S/S66N/T106N/T262R/W38E/Y61H). Kind of experiment: IC50nM to purified HLA | DRB1 *0301. On the procedure: as §1
(§11) Head of the field: IC50nM to purified HLA | DRB1 *0301
as §2
(§12) Where the first naming reader finds the target: head: IC50nM to purified HLA | DRB1 *0301

In another experiment the target is purified HLA DRB1 *0101 (Homo sapiens, UniProt P01903+P01911, A100R/D57E/F55L/F60I/F76Y/I96L/L162R/M171V/P40L/Q125E/R42F/V115G/Y59C). Briefly: IC50nM to purified HLA | DRB1 *0101. As to the method:
as §1
(§13) Head of the field: IC50nM to purified HLA | DRB1 *0101
as §2
(§14) Where the first naming reader finds the target: head: IC50nM to purified HLA | DRB1 *0101

A further experiment has as its target HLA DRB1 *0405 (Homo sapiens, UniProt P01903+P01911, A100R/A169T/D86S/F76Y/I96L/K127E/L162R/M171V/N62H/P40V/Q125Y/R42H/S133A/S149N/S66Y/V115G/V209L/W38E). Briefly: IC50nM to purified HLA | DRB1 *0405. As to the method:
(§15) Table printed on a drawing sheet, FIG. 1 (contd.)
as §9
(§16) First copying reader's note: Continued from an earlier sheet of FIG. 1; decimal commas as printed, analog names encode substituted residues and positions, and some values are printed in italics or bold and some SEQ ID NOs underlined without a legend on this sheet.
as §10

A further experiment concerns the target HLA DRB1 *1501 (Homo sapiens, UniProt P01903+P01911). Briefly: IC50nM to purified HLA | DRB1 *1501. As to the method:
as §15, §3, §16, §4

The next experiment concerns the target HLA DRB1 *1302 (Homo sapiens, UniProt P01903+P01911, A100E/A169T/K41T/L162R/M171V/P40S/Q125H/Q178H/Q39Y/Q99D/R42S/S66N/T262R/V115G/W38E/Y61H). Kind of experiment: IC50nM to purified HLA | DRB1 *1302. On the procedure: as §15, §5, §16, §6
A further experiment has as its target HLA DRB1 *0301 (Homo sapiens, UniProt P01903+P01911, A100K/A102G/A103R/A169T/F55Y/I96L/K41T/L162R/M171V/P40S/Q125H/Q178H/Q39Y/R42S/S66N/T106N/T262R/W38E/Y61H). Kind of experiment: IC50nM to purified HLA | DRB1 *0301. On the procedure: as §15, §11, §16, §12
The next experiment addresses HLA DRB1 *0802 (Homo sapiens, UniProt P01903+P01911, A100R/A103L/A169T/F76Y/H45Y/I96F/K41T/L162R/M171V/P40S/Q125H/Q178H/Q39Y/Q99D/R218S/R42G/S66Y/V115G/W38E). Kind of experiment: IC50nM to purified HLA | DRB1 *0802. As to the method: as §15
Head of the field: IC50nM to purified HLA | DRB1 *0802
as §16
Where the first naming reader finds the target: head: IC50nM to purified HLA | DRB1 *0802

A further experiment addresses HLA DRB4 *0101 (Homo sapiens, UniProt P01903+P13762, G164S). Briefly: IC50nM to purified HLA | DRB4 *0101. On the procedure: as §15, §7, §16, §8
The target of another experiment is HLA DRB1 *0101 (Homo sapiens, UniProt P01903+P01911, A100R/D57E/F55L/F60I/F76Y/I96L/L162R/M171V/P40L/Q125E/R42F/V115G/Y59C). Kind of experiment: IC50nM to purified HLA | DRB1 *0101. As to the method: as §15, §13, §16, §14

Where no end group is shown, it is not given here.

Chain of HLA DRB1 *1302 (P01903 26-254 limits assumed, other chains not shown): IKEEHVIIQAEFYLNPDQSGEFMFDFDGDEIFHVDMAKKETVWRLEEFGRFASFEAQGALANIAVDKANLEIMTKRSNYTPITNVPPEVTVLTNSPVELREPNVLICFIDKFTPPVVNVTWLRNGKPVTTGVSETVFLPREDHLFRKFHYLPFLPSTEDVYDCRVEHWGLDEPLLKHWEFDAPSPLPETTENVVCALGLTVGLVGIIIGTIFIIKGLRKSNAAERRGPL
Chain of HLA DRB1 *0301 (P01903 26-254 limits assumed, other chains not shown): as above
Chain of purified HLA DRB1 *1101 (P01903 26-254 limits assumed, other chains not shown): as above
Chain of purified HLA DRB4 *0101 (P01903 26-254 limits assumed): as the sequence (P01903 26-254 limits assumed, other chains not shown) above
Chain of purified HLA DRB4 *0101 (P13762 whole entry G164S): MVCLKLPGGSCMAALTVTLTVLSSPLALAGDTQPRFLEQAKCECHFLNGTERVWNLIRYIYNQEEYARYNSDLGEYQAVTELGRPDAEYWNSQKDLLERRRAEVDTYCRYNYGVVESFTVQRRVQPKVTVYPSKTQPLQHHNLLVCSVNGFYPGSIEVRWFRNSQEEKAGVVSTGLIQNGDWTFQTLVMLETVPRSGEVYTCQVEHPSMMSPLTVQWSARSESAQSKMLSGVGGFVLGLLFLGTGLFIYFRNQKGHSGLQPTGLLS
Chain of purified HLA DRB1 *0301 (P01903 26-254 limits assumed, other chains not shown): as the sequence (P01903 26-254 limits assumed, other chains not shown) above
Chain of purified HLA DRB1 *1302 (P01903 26-254 limits assumed, other chains not shown): as above
Chain of HLA DRB4 *0101 (P01903 26-254 limits assumed): as the sequence (P01903 26-254 limits assumed, other chains not shown) above
Chain of HLA DRB4 *0101 (P13762 whole entry G164S): as the sequence (P13762 whole entry G164S) above

As usually defined, the IC50 is the concentration that gives 50% inhibition. For AAAFFVAAWTLKAAA [SEQ ID NO: 11], the IC50 was 0.0024 µM on purified HLA DRB1 *0401; 0.0099 µM against purified HLA DRB5 *0101; 0.031 µM on purified HLA DRB1 *0901; 0.032 µM against purified HLA DRB1 *1501; 2.81 µM against purified HLA DRB1 *1302; 0.0073 µM against purified HLA DRB1 *0404. Also, the IC50 at purified HLA DRB4 *0101 amounted to 0.517 µM; against purified HLA DRB1 *1101 it was 0.027 µM; against purified HLA DRB1 *0701, 0.074 µM; on purified HLA DRB1 *0405, 0.031 µM; against purified HLA DRB1 *0301, 0.227 µM; against purified HLA DRB1 *0101, 0.0057 µM.
Take AAAQFVAAWTLHAAA [SEQ ID NO: 64]: the IC50 was found to be 0.013 µM against HLA DRB1 *0405, 0.013 µM against HLA DRB1 *1501, 1.12 µM against HLA DRB1 *1302 and 0.187 µM against HLA DRB1 *0301.
With AAANFVAAFTLKAEA [SEQ ID NO: 61], the concentration for half-maximal inhibition (IC50) on HLA DRB1 *0802 came out at 0.014 µM; on HLA DRB1 *0405 it was 0.012 µM; against HLA DRB1 *1302 it was 1.57 µM; against HLA DRB1 *0301, 1.54 µM; against HLA DRB4 *0101, 0.492 µM; on HLA DRB1 *0101 it was 0.008 µM.
